According to ChEMBL document CHEMBL1140429, “Conversion of the potent delta-opioid agonist H-Dmt-Tic-NH-CH(2)-bid into delta-opioid antagonists by N(1)-benzimidazole alkylation(1)” (J Med Chem, 2005):
pIC50, pKi: −log10 of the molar value.

Key:
Mu-type opioid receptor [1] = target: Mu-type opioid receptor (Rattus norvegicus, UniProt P33535); assay: Displacement of [3H]DAMGO from rat mu opioid receptor in brain P2 synaptosomes; type: subcellular
[2] = target: Delta-type opioid receptor (Rattus norvegicus, UniProt P33533); assay: Displacement of [3H]deltorphin II from rat delta opioid receptor in brain P2 synaptosomes; type: subcellular
Mu-type opioid receptor [3] = target: Mu-type opioid receptor (Cavia porcellus, UniProt P97266); assay: Functional bioactivity against mu opioid receptor in guinea-pig ileum; type: tissue-based
[4] = target: Delta-type opioid receptor (Mus musculus, UniProt P32300); assay: Functional bioactivity against delta opioid receptor in mouse vas deferens; type: tissue-based; conditions: for Kb: read-out: pA2 (converted)
Chain of Delta-type opioid receptor (Mus musculus, UniProt P32300) (P32300 whole entry): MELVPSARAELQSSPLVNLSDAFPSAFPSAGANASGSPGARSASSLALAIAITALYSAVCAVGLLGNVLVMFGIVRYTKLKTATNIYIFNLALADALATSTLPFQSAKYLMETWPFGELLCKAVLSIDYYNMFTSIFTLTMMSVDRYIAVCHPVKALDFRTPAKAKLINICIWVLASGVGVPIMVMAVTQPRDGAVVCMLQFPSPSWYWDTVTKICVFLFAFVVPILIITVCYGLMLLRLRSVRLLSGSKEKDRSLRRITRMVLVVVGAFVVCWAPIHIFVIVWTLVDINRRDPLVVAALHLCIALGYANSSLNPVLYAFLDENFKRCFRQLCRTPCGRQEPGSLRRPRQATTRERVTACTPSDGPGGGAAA

Chain of Delta-type opioid receptor (Rattus norvegicus, UniProt P33533) (P33533 whole entry): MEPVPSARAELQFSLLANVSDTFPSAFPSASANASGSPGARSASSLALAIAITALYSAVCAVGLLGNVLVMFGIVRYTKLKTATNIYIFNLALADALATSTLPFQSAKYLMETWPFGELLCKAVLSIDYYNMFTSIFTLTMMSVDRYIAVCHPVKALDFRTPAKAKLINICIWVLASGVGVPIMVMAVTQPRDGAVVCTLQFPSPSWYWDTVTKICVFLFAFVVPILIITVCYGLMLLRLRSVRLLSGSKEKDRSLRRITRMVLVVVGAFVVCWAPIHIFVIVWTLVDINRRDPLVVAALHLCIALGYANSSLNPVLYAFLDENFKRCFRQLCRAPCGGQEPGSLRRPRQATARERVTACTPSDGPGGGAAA
Chain of Mu-type opioid receptor (Cavia porcellus, UniProt P97266) (P97266 whole entry): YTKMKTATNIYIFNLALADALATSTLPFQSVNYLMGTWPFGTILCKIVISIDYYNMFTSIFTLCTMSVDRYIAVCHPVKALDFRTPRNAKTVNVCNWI
Chain of Mu-type opioid receptor (Rattus norvegicus, UniProt P33535) (P33535 whole entry): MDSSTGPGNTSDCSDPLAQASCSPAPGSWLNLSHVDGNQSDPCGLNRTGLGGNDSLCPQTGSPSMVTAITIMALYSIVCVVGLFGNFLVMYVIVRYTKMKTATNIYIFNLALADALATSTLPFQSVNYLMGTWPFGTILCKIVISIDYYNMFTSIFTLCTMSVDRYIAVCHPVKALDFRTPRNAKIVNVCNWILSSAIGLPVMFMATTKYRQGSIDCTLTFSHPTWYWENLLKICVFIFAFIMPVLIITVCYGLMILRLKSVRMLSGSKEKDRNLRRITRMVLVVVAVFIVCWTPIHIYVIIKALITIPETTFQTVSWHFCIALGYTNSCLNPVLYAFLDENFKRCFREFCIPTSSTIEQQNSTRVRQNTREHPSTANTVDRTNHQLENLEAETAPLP

Row | Compound | pKi (Mu-type opioid receptor [1]) | pKi [2] | pIC50 (Mu-type opioid receptor [3]) | IC50 [4] | Kb [4]
1 | Cc1cc(O)cc(C)c1C[C@H](N)C(=O)N1Cc2ccccc2C[C@H]1C(=O)NCc1nc2ccccc2n1CC1CC1 | 9.28 | 9.44 | 7.19 | Not Active | 0.339 nM
2 | CCOC(=O)Cn1c(CNC(=O)[C@@H]2Cc3ccccc3CN2C(=O)[C@@H](N)Cc2c(C)cc(O)cc2C)nc2ccccc21 | 8.85 | 9.92 | 7.52 | Not Active | 0.17 nM
3 | C=CCn1c(CNC(=O)[C@@H]2Cc3ccccc3CN2C(=O)[C@@H](N)Cc2c(C)cc(O)cc2C)nc2ccccc21 | 9.36 | 9.89 | 7.14 | Not Active | 0.457 nM
4 | Cc1cc(O)cc(C)c1C[C@H](N)C(=O)N1Cc2ccccc2C[C@H]1C(=O)NCc1nc2ccccc2n1CC(=O)O | 8.16 | 10.68 | 5.50 | Not Active | 0.269 nM
5 | Cc1cc(O)cc(C)c1C[C@H](N)C(=O)N1Cc2ccccc2C[C@H]1C(=O)NCc1nc2ccccc2n1C | 9.08 | 9.80 | 6.35 | Not Active | 0.0724 nM
6 | Cc1cc(O)cc(C)c1C[C@H](N)C(=O)N1Cc2ccccc2C[C@H]1C(=O)NCc1nc2ccccc2n1Cc1ccccc1 | 8.99 | 9.70 | 6.61 | Not Active | 3.02 nM
7 | CC(C)[C@H](NC(=O)[C@H](CC(=O)O)NC(=O)[C@H](Cc1ccccc1)NC(=O)[C@@H](C)NC(=O)[C@@H](N)Cc1ccc(O)cc1)C(=O)N[C@H](C(=O)NCC(N)=O)C(C)C [DELTORPHIN C] | – | – | 5.89 | – | –
8 | C[C@@H](NC(=O)[C@@H](N)Cc1ccc(O)cc1)C(=O)N[C@@H](Cc1ccccc1)C(=O)NCC(=O)N[C@@H](Cc1ccc(O)cc1)C(=O)N1CCC[C@H]1C(=O)N[C@@H](CO)C(N)=O [DERMORPHIN] | – | – | 8.72 | – | –
